Reference: patent publication US9387183B2, “Method of treating diabetes-related impaired wound healing” (KUWAIT UNIVERSITY, priority 2011, dated 2016)

Experiments:
[1] = Global physiological characteristics of diabetic rats (weights, plasma and wound fluid hormones, oxidative stress); type: in vivo, rat; conditions: for Plasma F2 Isoprostanes: index of oxidative stress
Protocol: All animal procedures were performed in accordance with the NIH Guidance for the Care and Use of Laboratory Animals. The current study used the mildly hyperglycemic, non-obese Goto-Kakizaki (GK) spontaneously diabetic rats, produced by selective inbreeding of glucose-intolerant Wistar rats as a genetic model for type 2 diabetes. Weight-matched female Wistar rats (Kuwait University breeding colony) served as controls. All animals were maintained under standard conditions with 12 hours on/off light cycle, commercial diet, and water ad libitum. Rats destined for various experimental manipulations, including wounding, insulin sensitivity, and drug treatment, were initially matched with regard to body weight (e.g., 230 to 250 g), plasma levels of glucose, free fatty acids and insulin. These indices are commonly used to reflect the severity of the diabetic state.
Cycling control rats in proestrus were used as a reference group. Similarly, the diabetic rats were also treated with PEG-sTNF-RI, a soluble long-lasting form of TNF-RI that neutralizes TNF-α action. […] All of the treatment regimens used with the diabetic rats were given for at least three weeks before wound initiation, and this form of treatment continued during the course of wound healing.
Animals were sacrificed at 3 and 7 days post-wounding. An area that included the complete epithelial margins was excised, and the wounds were bisected and processed so that the mid-point of the wound was sectioned and compared between groups. The resulting specimens were either fixed in 4% paraformaldehyde in phosphate-sucrose buffer and analyzed histologically, or flash frozen in liquid nitrogen and stored at −80° C. prior to biochemical analysis, or embedded in Optimum Cutting Temperature (OCT) compound and immediately frozen in liquid nitrogen for immunofluorescence analysis. It is worthy of note that the number of wounds used for most of the aforementioned studies were in the range of 48 to 60 wounds per treatment. Some parameters related to sex hormones and oxidative stress were measured in serum or wound fluids, which were collected on day 7 post-wounding from subcutaneously inserted stainless steel mesh chambers.

wound macrophage markers = conditions: diabetic wounds
[2] = tested on: TGF-β1-Smad signaling pathway; assay: TGF-β/Smad-dependent signaling in diabetic wounds; type: in vivo, rat; conditions: wounds from treated diabetic rats, day 7; for TGF-βRII expression: FIG. 3D; for phospho-Smad2: FIG. 3E; for Smad7 levels: FIG. 3F
Protocol: Samples of the total cellular and nuclear extracts were subjected to protein determinations using the Bicinchoninic Acid Protein Assay Kit (Pierce). For western blotting, an equal volume of 2×SDS sample buffer was added, and the samples were denatured by boiling for 5 minutes. Proteins were applied to SDS-polyacrylamide gel electrophoresis (SDS-PAGE) and transferred to an Immobilon polyvinylidene difluoride membrane (BioRad). The membranes were blocked with tris buffered saline containing 0.05% Tween 20 and 5% skim milk, and then treated with a number of primary antibodies, including Smad2/p-Smad2 (Cell Signaling), Smad7 (Imgenex), and β3-integrin (Santa Cruz). Protein bands were visualized by chemiluminescence (Pierce), and band intensity was determined using Bio-Rad densitometer. Unless otherwise specified, β-actin was used to standardize the quantity of sample protein for all Western blotting analyses.

GK diabetic rats [3] = assay: Insulin sensitivity clamp (Rapid Insulin Sensitivity Test) in female diabetic rats
[4] = tested on: rheumatoid arthritis in rat models; conditions: subcutaneous administration, dose of 0.3 mg/kg; cited from earlier work
GK diabetic rats [5] = assay: Full-thickness excisional wound healing in GK diabetic rats (closure, re-epithelialization, ECM deposition); conditions: diabetic wounds
NF-κB = NF-κB p65-DNA binding activity in wounds; type: in vivo, rat; conditions: wounds from treated diabetic rats; FIG. 5G
Protocol: To assess protein expression and NF-κB activation, frozen liquid nitrogen powdered wounded tissues or serum starved RDFs/HDFs were homogenized on ice in a RIPA buffer (50 mM Tris pH 7.4, 150 mM NaCl, 10 mM EDTA, 2 mM sodium vanadate, 150 mM sodium fluoride, 0.5% sodium deoxycholate, 1% Triton X-100, and a cocktail of protease inhibitors) for total cellular proteins, or with a hypotonic buffer A (10 mM HEPES pH 7.9, 10 mM KCl, 2 mM MgCl2, 0.1 mM EDTA, 1.0 mM DTT, 0.5 mM PMSF, 20 mM NaF, 1 mM sodium orthovanadate and a cocktail of protease inhibitors) for the nuclear protein extraction. […] Similarly, the hypotonic buffer-dependent homogenates (500 μl) were incubated on ice for 20 minutes, after which 50 μl of 10% NP-40 was added. The mixture was vortexed and centrifuged (5000×g, 1 min, 4° C.). […]
A quantitative analysis of p65-DNA binding activity was performed on the nuclear protein extracts using the ELISA-based TransAM NFκB Transcription Factor Assay Kit (Active Motif) according to the manufacturer's instruction. […] The activated transcription factor, specifically bound to the immobilized oligonucleotide, was detected using an antibody directed against NF-κB and a secondary antibody conjugated to horseradish peroxidase. The developing solution was then added, and the OD (450-665 mm) was measured using a microplate reader (Thermo Scientific). Results were expressed as % of control.

[6] = GK diabetic rats treated, plasma, mean±SEM
[7] = GK diabetic rats treated, wound fluid day 7 post-wounding, mean±SEM
[8] = female GK diabetic rats treated, mean±SEM

For `C[C@]12CC[C@@H]3c4ccc(O)cc4CC[C@H]3[C@@H]1CC[C@@H]2O` [E2, β-estradiol], the “Weight (g) Uterus” value ([1]; GK diabetic rats treated, mean±SEM) was 0.41 ± 0.04 g, the “Plasma F2 Isoprostanes” value [1, 6] was 47 ± 6.6 pg/mL and the “Plasma Testosterone” value [1, 6] was 849 ± 85 pg/mL. The “Wound fluid F2 Isoprostanes” value [1, 7] was 43 ± 4.4 pg/mL, the “Wound fluid Testosterone” value [1, 7] was 456 ± 47 pg/mL and the “diabetes-related abnormalities (testosterone, F2 isoprostanes, uterine weights, plasma and wound E2 levels)” value ([1]; GK diabetic rats, Table 1) was “Most of the aforementioned abnormalities were normalized”. For the same molecule, the “up-regulation in M1 macrophage-derived markers, together with the resolution of inflammation within the diabetic wound microenvironment” value (wound macrophage markers; FIG. 5C-E) was “normalized”, the “diabetes-related decrease in the expression of wound M2 macrophage phenotype” value (wound macrophage markers; FIGS. 2F, 2G, 3A, 3B, 5F) was “partial reversal” and the TGF-βRII expression [2] was “augmented”. For the same molecule, the phospho-Smad2 [2] was “augmented” and the Smad7 levels [2] was “decreased”.
In the case of “TNFR1: soluble pegylated long-lasting form of TNF-RI (Amgen) that neutralizes TNF-α action”, the “Plasma F2 Isoprostanes” value [1, 6] was 69 ± 8.4 pg/mL, the “Wound fluid F2 Isoprostanes” value [1, 7] was 59 ± 5.2 pg/mL and the “effect on carbohydrate tolerance” value (GK diabetic rats [3]; diabetic animals, Table 2) was “favorable effect”. For the same molecule, the hyperinsulinemic state (GK diabetic rats [3]; diabetic animals, Table 2) was “partially ameliorated”, the “target tissue sensitivity to insulin (increase in glucose infusion rate)” value (GK diabetic rats [3]; diabetic animals, Table 2) was “significantly improved” and the “GIR: Glucose infusion rate” value (GK diabetic rats [3]; female GK diabetic rats treated, clamp, mean±SEM) was 18.53 ± 1.49 mg/min/kg body wt. For the same molecule, the “FBG: Fasting blood glucose” value (GK diabetic rats [3]; [8]) was 125 ± 17 mg/dL, the “FPI: Fasting plasma insulin” value (GK diabetic rats [3]; [8]) was 0.68 ± 0.05 ng/mL and the “PCPI: Post clamp plasma insulin” value (GK diabetic rats [3]; [8]) was 4.61 ± 0.4 ng/mL. For the same molecule, the “inflammatory reaction of rheumatoid arthritis” value [4] was “appears to limit the inflammatory reaction”, the pro-resolving/M2 polarizing effect (wound macrophage markers) was “recapitulated” and the TGF-βRII expression [2] was “augmented”. For the same molecule, the phospho-Smad2 [2] was “augmented”, the Smad7 levels [2] was “decreased” and the “deposition of ECM” value (GK diabetic rats [5]; FIG. 2A-D) was “significant improvement”. The “healing process, at the macroscopic and microscopic levels” value (GK diabetic rats [5]; FIGS. 1A and B) was “significant improvement” and the NF-κB activity (NF-κB) was “significant decrease”.
